Values joined by “and” are separate entries in the source; they are usually repeats but may differ in a detail not shown here. Identical values can stand only once.
Legend:
[1] = test system: embryonic stages of S. digitata; experiment: Intra cellular expression of CED-4 protein, flow cytometry; type: cell-based, Setaria digitata; conditions: 24 hr
Protocol: Adult female filarial worms Setaria digitata were collected from the peritoneum of cattle, slaughtered at a nearby abattoir in sterile Hanks Balanced Salt Solution (HBSS) medium (Sigma H 2387-1L) and transported to the laboratory in a sterile container. The medium containing 1% glucose (Sigma G 7528), Penicillin 100 units/ml, Streptomycin 100 μg/ml (Sigma P 4333). And Amphotericin-B 0.25 μg/ml (Sigma A 2942) was buffered with NaHCO3 (Sigma S 5761). About 5 to 7 worms were taken in a petridish, washed three times in medium, dissected into small pieces in 10 ml of medium under sterile conditions and incubated at 37° C. for 30 minutes to allow the release of embryonic stages (eggs and microfilariae) into the medium. The embryonic stages were harvested into sterile 15 ml. centrifuge tubes and washed three times by centrifuging at 300 g for 10 minutes each with medium and the final pellet was suspended in 1 ml. of RPMI-1640 medium (Sigma R 8005) supplemented with 10% FBS (Sigma F 2442) The number of embryonic stages of S. digitata in the above preparation were counted using light microscope, and the suspension was taken in RPMI-1640 medium containing 10% FBS at 1×10^5 embryonic stages/ml. One ml. each was dispensed into individual wells of a 24 well tissue culture plate. One set of wells was taken as untreated control containing only medium with 10% FBS. […] Motility of the Mf was scored under an inverted microscope. After appropriate treatment and incubation, each set of the cultured embryonic stages of S. digitata were harvested from the 24 well tissue culture plate separately in 15 ml. sterile centrifuge tubes, washed with PBS twice and stained as per requirement following manufacturer's instructions as described below. This was followed by two times washing with PBS and final suspension of the stained embryonic stages was taken in 0.5 ml of sheath fluid (BD Biosciences 342003) before their acquisition in the flow cytometer (BD FACS Calibur, Becten and Dickinson, USA). Analysis was performed on 10,000-acquired events depicted as Dot Plots and Histogram Plots using Cellquest Pro soft ware. All plots were representative of at least 3 experiments. The distinctly clustered populations obtained consistently in the Dot plots for the intra uterine embryonic stages of S. digitata (FIG. 1 a) were gated for Mfs (R-1) and eggs (R-2 and R-3) and analyzed for different assays for apoptosis as described below. After in vitro culture for 24 hours with apoptosis inducing reagents the embryonic stages were harvested in 15 ml. sterile centrifuge tubes and fixed for 60 minutes at 0° C. in 1% paraformaldehyde (Sigma P 6148) in PBS. The suspension was washed first with PBS and then with 1× permeabilisation buffer (eBioscience 00-8333-56) and finally resuspended in 100 μl of 1× permeabilisation buffer at 1×10^5 embryonic stages per ml. The intracellular expression of CED-4 was scored by incubation of the fixed and permeabilised embryonic stages with primary goat antibodies—anti CED-4 (Santacruz sc-9193) followed by probing with PE conjugated secondary anti goat IgG-PE (Santacruz sc-3747) antibodies. Incubation of both primary and secondary antibodies (both 1/100 diluted) was done successively in 1× permeabilisation buffer (e Bioscience 00-8333-56) for 1 hr and 45 minutes respectively. The suspension of stained embryonic stages was then washed with PBS twice and finally reading was taken by flow cytometry or confocal microscopy.

[2] = test system: embryonic stages of S. digitata; experiment: Intra cellular activation of caspase-3 like cysteine proteinases, anti active caspase-3-PE staining; type: cell-based, Setaria digitata; conditions: 24 hr
Protocol: Adult female filarial worms Setaria digitata were collected from the peritoneum of cattle, slaughtered at a nearby abattoir in sterile Hanks Balanced Salt Solution (HBSS) medium (Sigma H 2387-1L) and transported to the laboratory in a sterile container. The medium containing 1% glucose (Sigma G 7528), Penicillin 100 units/ml, Streptomycin 100 μg/ml (Sigma P 4333). And Amphotericin-B 0.25 μg/ml (Sigma A 2942) was buffered with NaHCO3 (Sigma S 5761). About 5 to 7 worms were taken in a petridish, washed three times in medium, dissected into small pieces in 10 ml of medium under sterile conditions and incubated at 37° C. for 30 minutes to allow the release of embryonic stages (eggs and microfilariae) into the medium. The embryonic stages were harvested into sterile 15 ml. centrifuge tubes and washed three times by centrifuging at 300 g for 10 minutes each with medium and the final pellet was suspended in 1 ml. of RPMI-1640 medium (Sigma R 8005) supplemented with 10% FBS (Sigma F 2442) The number of embryonic stages of S. digitata in the above preparation were counted using light microscope, and the suspension was taken in RPMI-1640 medium containing 10% FBS at 1×10^5 embryonic stages/ml. One ml. each was dispensed into individual wells of a 24 well tissue culture plate. One set of wells was taken as untreated control containing only medium with 10% FBS. […] Motility of the Mf was scored under an inverted microscope. After appropriate treatment and incubation, each set of the cultured embryonic stages of S. digitata were harvested from the 24 well tissue culture plate separately in 15 ml. sterile centrifuge tubes, washed with PBS twice and stained as per requirement following manufacturer's instructions as described below. This was followed by two times washing with PBS and final suspension of the stained embryonic stages was taken in 0.5 ml of sheath fluid (BD Biosciences 342003) before their acquisition in the flow cytometer (BD FACS Calibur, Becten and Dickinson, USA). Analysis was performed on 10,000-acquired events depicted as Dot Plots and Histogram Plots using Cellquest Pro soft ware. All plots were representative of at least 3 experiments. […] After in vitro culture for 24 hours with apoptosis inducing reagents the embryonic stages were harvested in 15 ml. sterile centrifuge tubes and fixed for 60 minutes at 0° C. in 1% paraformaldehyde (Sigma P 6148) in PBS. The suspension was washed first with PBS and then with 1× permeabilisation buffer (eBioscience 00-8333-56) and finally resuspended in 100 μl of 1× permeabilisation buffer at 1×10^5 embryonic stages per ml. This suspension was then incubated for 45 minutes with 20 μl of anti active caspase-3-PE (BD Biosciences 559762). This was followed by washing with PBS twice and analysis by Flow cytometer.

| Structure (SMILES) | GMI (Geometric Mean Intensity) of Fluorescence, CED-4 Expression ([1]; Eggs, 10 μM) | GMI (Geometric Mean Intensity) of Fluorescence, CED-4 Expression ([1]; Microfilariae, 10 μM) | GMI (Geometric Mean Intensity) of Fluorescence, Caspase-3 Activation ([2]; Eggs, 10 μM) | GMI (Geometric Mean Intensity) of Fluorescence, Caspase-3 Activation ([2]; Microfilariae, 10 μM) | GMI (Geometric Mean Intensity) of Fluorescence, CED-4 Expression ([1]; Eggs, 1 μM) | GMI (Geometric Mean Intensity) of Fluorescence, CED-4 Expression ([1]; Microfilariae, 1 μM) | GMI (Geometric Mean Intensity) of Fluorescence, Caspase-3 Activation ([2]; Eggs, 1 μM) | GMI (Geometric Mean Intensity) of Fluorescence, Caspase-3 Activation ([2]; Microfilariae, 1 μM) |
| --- | --- | --- | --- | --- | --- | --- | --- | --- |
| OO [H2O2] | 99.36 and 100.32 and 95.29 | 15.72 and 17.33 and 16.26 | 56.95 and 61.37 and 60.20 | 7.57 and 9.69 and 12.34 | – | – | – | – |
| CC1=CC(=O)c2c(O)cccc2C1=O [Plumbagin] | 209.76 and 213.57 and 210.32 | 35.97 and 38.27 and 33.39 | 82.35 and 87.32 and 80.16 | 10.57 and 11.22 and 14.16 | – | – | – | – |
| CN[C@@H]1C[C@H]2O[C@@](C)([C@@H]1OC)n1c3ccccc3c3c4c(c5c6ccccc6n2c5c31)C(=O)NC4 [Staurosporine] | – | – | – | – | 95.67 and 97.28 and 96.32 | 9.01 and 9.92 and 8.25 | 50.13 and 54.95 and 50.97 | 6.20 and 6.72 |

Source: patent US20110124523A1, “High Throughput Method for Detecting Apoptosis of Embryonic Stages of Metazoan Helminthic Parasites” (INSTITUTE OF LIFE SCIENCES, priority 2009, published 2011)
